Reference: PubChem BioAssay (NCI)
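Results reflect a 48-hour exposure of cells in 96-well plates to compound at five concentrations. TGI marks complete inhibition of growth.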

Tests used:
Assay in all cases: inhibition of tumour cell growth, NCI panel, 48 h
A498 renal = test system: A498 renal
A549 NSCLC = test system: A549 NSCLC
ACHN renal = test system: ACHN renal
CAKI-1 renal = test system: CAKI-1 renal
CCRF-CEM leukemia = test system: CCRF-CEM leukemia
COLO 205 colon = test system: COLO 205 colon
DLD-1 colon = test system: DLD-1 colon
DMS 114 small cell lung = test system: DMS 114 small cell lung
DMS 273 small cell lung = test system: DMS 273 small cell lung
EKVX NSCLC = test system: EKVX NSCLC
HCC-2998 colon = test system: HCC-2998 colon
HCT-116 colon = test system: HCT-116 colon
HCT-15 colon = test system: HCT-15 colon
HL-60(TB) leukemia = test system: HL-60(TB) leukemia
HOP-62 NSCLC = test system: HOP-62 NSCLC
HOP-92 NSCLC = test system: HOP-92 NSCLC
HT29 colon = test system: HT29 colon
IGROV1 ovarian = test system: IGROV1 ovarian
K-562 leukemia = test system: K-562 leukemia
KM12 colon = test system: KM12 colon
KM20L2 colon = test system: KM20L2 colon
LOX IMVI melanoma = test system: LOX IMVI melanoma
LXFL 529 NSCLC = test system: LXFL 529 NSCLC
M14 melanoma = test system: M14 melanoma
M19-MEL melanoma = test system: M19-MEL melanoma
MOLT-4 leukemia = test system: MOLT-4 leukemia
NCI-H226 lung = test system: NCI-H226 lung
NCI-H23 lung = test system: NCI-H23 lung
NCI-H460 lung = test system: NCI-H460 lung
NCI-H522 lung = test system: NCI-H522 lung
OVCAR-4 ovarian = test system: OVCAR-4 ovarian
OVCAR-5 ovarian = test system: OVCAR-5 ovarian
OVCAR-8 ovarian = test system: OVCAR-8 ovarian
RPMI-8226 leukemia = test system: RPMI-8226 leukemia
RXF 393 renal = test system: RXF 393 renal
RXF-631 renal = test system: RXF-631 renal
SF-268 CNS = test system: SF-268 CNS
SF-295 CNS = test system: SF-295 CNS
SF-539 CNS = test system: SF-539 CNS
SK-MEL-2 melanoma = test system: SK-MEL-2 melanoma
SK-MEL-28 melanoma = test system: SK-MEL-28 melanoma
SK-MEL-5 melanoma = test system: SK-MEL-5 melanoma
SK-OV-3 ovarian = test system: SK-OV-3 ovarian
SN12C renal = test system: SN12C renal
SNB-19 CNS = test system: SNB-19 CNS
SNB-75 CNS = test system: SNB-75 CNS
SNB-78 CNS = test system: SNB-78 CNS
SR leukemia = test system: SR leukemia
SW-620 colon = test system: SW-620 colon
TK-10 renal = test system: TK-10 renal
U251 CNS = test system: U251 CNS
UACC-257 melanoma = test system: UACC-257 melanoma
UACC-62 melanoma = test system: UACC-62 melanoma
UO-31 renal = test system: UO-31 renal
XF 498 CNS = test system: XF 498 CNS
786-0 renal = test system: 786-0 renal
HOP-18 NSCLC = test system: HOP-18 NSCLC
MALME-3M melanoma = test system: MALME-3M melanoma
OVCAR-3 ovarian = test system: OVCAR-3 ovarian
BT-549 breast = test system: BT-549 breast
DU-145 prostate = test system: DU-145 prostate
HS 578T breast = test system: HS 578T breast
MCF7 breast = test system: MCF7 breast
MDA-MB-231 breast = test system: MDA-MB-231 breast
MDA-MB-435 = test system: MDA-MB-435
MDA-N = test system: MDA-N
NCI/ADR-RES ovarian = test system: NCI/ADR-RES ovarian
PC-3 prostate = test system: PC-3 prostate

O=C(Nc1ccccc1)C(=O)C(C(=O)c1ccccc1F)C1OC(=O)c2ccccc21 (configuration not stated)
TGI (A498 renal): > 100 µM
TGI (A549 NSCLC): > 100 µM
TGI (ACHN renal): > 100 µM
TGI (CAKI-1 renal): > 100 µM
TGI (CCRF-CEM leukemia): > 100 µM
TGI (COLO 205 colon): 43.2 µM
TGI (DLD-1 colon): > 100 µM
TGI (DMS 114 small cell lung): 61.7 µM
TGI (DMS 273 small cell lung): > 100 µM
TGI (EKVX NSCLC): > 100 µM
TGI (HCC-2998 colon): 57.4 µM
TGI (HCT-116 colon): 49.9 µM
TGI (HCT-15 colon): 67.3 µM
TGI (HL-60(TB) leukemia): 75.6 µM
TGI (HOP-62 NSCLC): > 100 µM
TGI (HOP-92 NSCLC): > 100 µM
TGI (HT29 colon): > 100 µM
TGI (IGROV1 ovarian): > 100 µM
TGI (K-562 leukemia): > 100 µM
TGI (KM12 colon): > 100 µM
TGI (KM20L2 colon): > 100 µM
TGI (LOX IMVI melanoma): 63.2 µM
TGI (LXFL 529 NSCLC): > 100 µM
TGI (M14 melanoma): > 100 µM
TGI (M19-MEL melanoma): > 100 µM
TGI (MOLT-4 leukemia): > 100 µM
TGI (NCI-H226 lung): 62.6 µM
TGI (NCI-H23 lung): > 100 µM
TGI (NCI-H460 lung): > 100 µM
TGI (NCI-H522 lung): 61.8 µM
TGI (OVCAR-4 ovarian): > 100 µM
TGI (OVCAR-5 ovarian): > 100 µM
TGI (OVCAR-8 ovarian): 55 µM
TGI (RPMI-8226 leukemia): > 100 µM
TGI (RXF 393 renal): 63.2 µM
TGI (RXF-631 renal): > 100 µM
TGI (SF-268 CNS): 81 µM
TGI (SF-295 CNS): > 100 µM
TGI (SF-539 CNS): 43.2 µM
TGI (SK-MEL-2 melanoma): 93.8 µM
TGI (SK-MEL-28 melanoma): > 100 µM
TGI (SK-MEL-5 melanoma): > 100 µM
TGI (SK-OV-3 ovarian): > 100 µM
TGI (SN12C renal): > 100 µM
TGI (SNB-19 CNS): > 100 µM
TGI (SNB-75 CNS): 72.2 µM
TGI (SNB-78 CNS): > 100 µM
TGI (SR leukemia): 77.9 µM
TGI (SW-620 colon): > 100 µM
TGI (TK-10 renal): > 100 µM
TGI (U251 CNS): 46.9 µM
TGI (UACC-257 melanoma): > 100 µM
TGI (UACC-62 melanoma): > 100 µM
TGI (UO-31 renal): > 100 µM
TGI (XF 498 CNS): > 100 µM

CC(C)=CC1CC(=O)C1(C)Sc1ccccc1 (configuration not stated)
TGI (786-0 renal): > 100 µM
TGI (A498 renal): > 100 µM
TGI (A549 NSCLC): > 100 µM
TGI (ACHN renal): > 100 µM
TGI (CAKI-1 renal): > 100 µM
TGI (CCRF-CEM leukemia): 45 µM
TGI (COLO 205 colon): 65.1 µM
TGI (DLD-1 colon): > 100 µM
TGI (DMS 114 small cell lung): 32.6 µM
TGI (EKVX NSCLC): > 100 µM
TGI (HCC-2998 colon): > 100 µM
TGI (HCT-116 colon): > 100 µM
TGI (HCT-15 colon): 34.8 µM
TGI (HL-60(TB) leukemia): 46.7 µM
TGI (HOP-18 NSCLC): > 100 µM
TGI (HOP-62 NSCLC): > 100 µM
TGI (HOP-92 NSCLC): 87 µM
TGI (HT29 colon): 66.6 µM
TGI (IGROV1 ovarian): > 100 µM
TGI (K-562 leukemia): 59.4 µM
TGI (KM12 colon): > 100 µM
TGI (KM20L2 colon): > 100 µM
TGI (LOX IMVI melanoma): 36.1 µM
TGI (LXFL 529 NSCLC): > 100 µM
TGI (M14 melanoma): > 100 µM
TGI (M19-MEL melanoma): 72.1 µM
TGI (MALME-3M melanoma): > 100 µM
TGI (MOLT-4 leukemia): 92.1 µM
TGI (NCI-H226 lung): > 100 µM
TGI (NCI-H23 lung): > 100 µM
TGI (NCI-H460 lung): 54.4 µM
TGI (NCI-H522 lung): 69.1 µM
TGI (OVCAR-3 ovarian): > 100 µM
TGI (OVCAR-4 ovarian): > 100 µM
TGI (OVCAR-5 ovarian): > 100 µM
TGI (OVCAR-8 ovarian): > 100 µM
TGI (RPMI-8226 leukemia): 45.9 µM
TGI (RXF 393 renal): 72 µM
TGI (RXF-631 renal): > 100 µM
TGI (SF-268 CNS): > 100 µM
TGI (SF-295 CNS): > 100 µM
TGI (SF-539 CNS): > 100 µM
TGI (SK-MEL-2 melanoma): > 100 µM
TGI (SK-MEL-28 melanoma): > 100 µM
TGI (SK-MEL-5 melanoma): > 100 µM
TGI (SK-OV-3 ovarian): > 100 µM
TGI (SN12C renal): > 100 µM
TGI (SNB-19 CNS): > 100 µM
TGI (SNB-75 CNS): > 100 µM
TGI (SNB-78 CNS): > 100 µM
TGI (SR leukemia): 41.4 µM
TGI (TK-10 renal): > 100 µM
TGI (U251 CNS): > 100 µM
TGI (UACC-257 melanoma): > 100 µM
TGI (UACC-62 melanoma): > 100 µM
TGI (UO-31 renal): > 100 µM
TGI (XF 498 CNS): 95.7 µM

N#CCC(=O)N/N=C(\CCN1CCCC1)CC(c1ccccc1)c1c(O)c2ccccc2oc1=O (configuration not stated)
TGI (786-0 renal): > 100 µM
TGI (A498 renal): > 85.5 µM
TGI (A549 NSCLC): > 100 µM
TGI (ACHN renal): > 100 µM
TGI (BT-549 breast): > 100 µM
TGI (CAKI-1 renal): > 100 µM
TGI (CCRF-CEM leukemia): > 94.8 µM
TGI (COLO 205 colon): > 56.8 µM
TGI (DLD-1 colon): > 100 µM
TGI (DU-145 prostate): > 100 µM
TGI (EKVX NSCLC): > 100 µM
TGI (HCC-2998 colon): > 100 µM
TGI (HCT-116 colon): > 100 µM
TGI (HCT-15 colon): > 100 µM
TGI (HL-60(TB) leukemia): 59.6 µM
TGI (HOP-18 NSCLC): > 100 µM
TGI (HOP-62 NSCLC): > 100 µM
TGI (HOP-92 NSCLC): > 100 µM
TGI (HS 578T breast): > 100 µM
TGI (HT29 colon): > 100 µM
TGI (IGROV1 ovarian): > 100 µM
TGI (K-562 leukemia): > 100 µM
TGI (KM12 colon): > 100 µM
TGI (KM20L2 colon): > 100 µM
TGI (LOX IMVI melanoma): > 64.7 µM
TGI (LXFL 529 NSCLC): > 100 µM
TGI (M14 melanoma): > 100 µM
TGI (M19-MEL melanoma): > 100 µM
TGI (MALME-3M melanoma): > 100 µM
TGI (MCF7 breast): 45.9 µM
TGI (MDA-MB-231 breast): > 100 µM
TGI (MDA-MB-435): > 100 µM
TGI (MDA-N): > 100 µM
TGI (MOLT-4 leukemia): 61.5 µM
TGI (NCI-H226 lung): > 100 µM
TGI (NCI-H23 lung): > 100 µM
TGI (NCI-H460 lung): > 100 µM
TGI (NCI-H522 lung): > 100 µM
TGI (NCI/ADR-RES ovarian): > 100 µM
TGI (OVCAR-3 ovarian): > 100 µM
TGI (OVCAR-4 ovarian): > 100 µM
TGI (OVCAR-5 ovarian): > 100 µM
TGI (OVCAR-8 ovarian): > 100 µM
TGI (PC-3 prostate): > 100 µM
TGI (RPMI-8226 leukemia): > 92.8 µM
TGI (RXF 393 renal): > 100 µM
TGI (RXF-631 renal): > 100 µM
TGI (SF-268 CNS): > 100 µM
TGI (SF-295 CNS): > 100 µM
TGI (SF-539 CNS): > 100 µM
TGI (SK-MEL-2 melanoma): > 100 µM
TGI (SK-MEL-28 melanoma): > 100 µM
TGI (SK-MEL-5 melanoma): > 100 µM
TGI (SK-OV-3 ovarian): > 100 µM
TGI (SN12C renal): > 100 µM
TGI (SNB-19 CNS): > 100 µM
TGI (SNB-75 CNS): > 100 µM
TGI (SR leukemia): 69.8 µM
TGI (SW-620 colon): > 100 µM
TGI (TK-10 renal): > 100 µM
TGI (U251 CNS): > 100 µM
TGI (UACC-257 melanoma): > 100 µM
TGI (UACC-62 melanoma): > 100 µM
TGI (UO-31 renal): > 100 µM
TGI (XF 498 CNS): > 100 µM
